Experimental data as given in paper PMC3759900, “Acetylcholinesterase Reactivators (HI-6, Obidoxime, Trimedoxime, K027, K075, K127, K203, K282): Structural Evaluation of Human Serum Albumin Binding and Absorption Kinetics” (International Journal of Molecular Sciences, 2013).

How the values were obtained:
[1] = molecular target: Human Serum Albumin (HSA) (Homo sapiens, UniProt P02768); experiment: HSA binding by ultrafiltration (Centrifree) and HPLC; details: HSA 45 g/L in phosphate buffer saline, 90 min at 37 °C, mean of three independent measurements
[2] = Pharmacokinetic study, plasma concentration after i.m. injection (HPLC); details: male Wister rats, description of plasma kinetic curves

Sequence of Human Serum Albumin (HSA) (P02768 25-609): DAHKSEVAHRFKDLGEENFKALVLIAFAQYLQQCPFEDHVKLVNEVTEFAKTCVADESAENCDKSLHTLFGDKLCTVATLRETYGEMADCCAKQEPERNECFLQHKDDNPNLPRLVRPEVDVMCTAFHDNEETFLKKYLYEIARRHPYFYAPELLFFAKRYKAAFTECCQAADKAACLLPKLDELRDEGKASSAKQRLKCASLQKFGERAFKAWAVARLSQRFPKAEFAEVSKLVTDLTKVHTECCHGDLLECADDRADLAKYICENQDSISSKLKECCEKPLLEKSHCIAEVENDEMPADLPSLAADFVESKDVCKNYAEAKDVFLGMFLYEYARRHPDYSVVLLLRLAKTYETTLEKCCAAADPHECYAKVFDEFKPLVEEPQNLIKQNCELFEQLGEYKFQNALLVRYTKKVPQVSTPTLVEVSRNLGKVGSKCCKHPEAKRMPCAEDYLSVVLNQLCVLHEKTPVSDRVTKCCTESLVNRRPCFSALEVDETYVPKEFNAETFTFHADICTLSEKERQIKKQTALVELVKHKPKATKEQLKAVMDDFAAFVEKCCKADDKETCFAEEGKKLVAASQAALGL

| SMILES | Binding to Human Serum Albumin (HSA) [1] [%] | Elimination from blood (kinetic curve profile) [2] |
| --- | --- | --- |
| NC(=O)c1cc[n+](COC[n+]2ccccc2/C=N/O)cc1 [HI-6] | 1 | slow elimination from the blood |
| NC(=O)c1cc[n+](CCOCC[n+]2ccc(C=NO)cc2)cc1 [K127] | 4 | – |
| NC(=O)c1cc[n+](C/C=C/C[n+]2ccc(/C=N/O)cc2)cc1 [K203] | 15 | – |
| NC(=O)c1cc[n+](CCC[n+]2ccc(/C=N/O)cc2)cc1 [K027] | 5 | – |
| O/N=C/c1cc[n+](C/C=C/C[n+]2ccc(/C=N/O)cc2)cc1 [K075] | 10 | – |
| O/N=C/c1cc[n+](CCC[n+]2ccc(/C=N/O)cc2)cc1 [Trimedoxime, trimedoxime] | 6 | slow elimination from the blood |
| O/N=C/c1cc[n+](COC[n+]2ccc(/C=N/O)cc2)cc1 [Obidoxime, obidoxime] | – | relatively fast elimination |
| ON=Cc1cc[n+](C/C=C\C[n+]2ccc(C=NO)cc2)cc1 [K282] | 12 | – |
